These results are taken from patent US20080214572A1, “Selected Tetracyclic Tetrahydrofuran Derivatives Containing a Cyclic Amine Side Chain” (priority 2005, published 2008).

The structures appear in SMILES notation. Like-named read-outs stand apart in the source and are kept apart here.

Assay [1] has as its target T1, human cloned 5-HT2A receptor, expressed in L929 cells (Homo sapiens, UniProt P28223).
T1 construct: expressed in transfected cells; host or cells: L929 cells
Description: In vitro radioligand binding affinity for 5-HT2A receptor ([125I]R91150). As to the method: (§1) The interaction of the compounds of Formula (I) with 5-HT2A and 5-HT2C receptors was assessed in in vitro radioligand binding experiments. In general, a low concentration of a radioligand with a high binding affinity for the receptor is incubated with a sample of a tissue preparation enriched in a particular receptor (1 to 5 mg tissue) in a buffered medium (0.2 to 5 ml). During the incubation, the radioligands bind to the receptor. When equilibrium of binding is reached, the receptor bound radioactivity is separated from the non-bound radioactivity, and the receptor bound activity is counted. The interaction of the test compounds with the receptors is assessed in competition binding experiments. Various concentrations of the test compound are added to the incubation mixture containing the tissue preparation and the radioligand. Binding of the radioligand will be inhibited by the test compound in proportion to its binding affinity and its concentration. The affinities of the compounds for the 5-HT2 receptors were measured by means of radioligand binding studies conducted with: (a) human cloned 5-HT2A receptor, expressed in L929 cells using [^125I]R91150 as radioligand and (b) human cloned 5-HT2C receptor, expressed in CHO cells using [^3H]mesulergine as radioligand.
(§2) The results are given in Table 3 below in terms of pIC50 values for the respective compounds.

For assay [2], the target named is T2, human cloned 5-HT2C receptor, expressed in CHO cells (Homo sapiens, UniProt P28335).
T2 construct: expressed in transfected cells; host or cells: CHO cells
T2 sequence (P28335 33-458): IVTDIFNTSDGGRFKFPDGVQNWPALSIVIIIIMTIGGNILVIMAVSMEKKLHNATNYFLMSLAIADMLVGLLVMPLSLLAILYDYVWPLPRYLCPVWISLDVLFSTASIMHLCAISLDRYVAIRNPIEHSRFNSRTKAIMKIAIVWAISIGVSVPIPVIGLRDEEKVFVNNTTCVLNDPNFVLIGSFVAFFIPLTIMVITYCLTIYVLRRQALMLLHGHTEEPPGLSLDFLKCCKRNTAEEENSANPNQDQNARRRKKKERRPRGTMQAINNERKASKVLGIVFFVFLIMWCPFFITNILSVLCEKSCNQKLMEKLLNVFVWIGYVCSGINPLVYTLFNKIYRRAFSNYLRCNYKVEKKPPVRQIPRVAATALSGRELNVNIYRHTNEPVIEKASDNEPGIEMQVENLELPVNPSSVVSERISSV
Description: In vitro radioligand binding affinity for 5-HT2C receptor ([3H]mesulergine). The procedure:
as §1, §2

The target in assay [3] is T3, human Dopamine D2L receptor (Homo sapiens, UniProt P14416).
T3 construct: expressed in transfected cells; host or cells: CHO cells (membranes)
Nature of the assay: In vitro binding affinity for human D2L receptor ([3H]Spiperone). The procedure: Frozen membranes of human Dopamine D2L receptor-transfected CHO cells were thawed, briefly homogenized using an Ultra-Turrax T25 homogenizer and diluted in Tris-HCl assay buffer containing NaCl, CaCl2, MgCl2, KCl ([…] respectively, adjusted to pH 7.7 with HCl) to an appropriate protein concentration optimized for specific and non-specific binding. Radioligand [^3H]Spiperone (NEN, specific activity ˜70 Ci/mmol) was diluted in assay buffer at a concentration of 2 nmol/L. Prepared radioligand (50 μl), along with 50 μl of either the 10% DMSO control, Butaclamol (10^−6 mol/l final concentration), or compound of interest, was then incubated (30 min, 37° C.) with 400 μl of the prepared membrane solution. Membrane-bound activity was filtered through a Packard Filtermate harvester onto GF/B Unifilter plates and washed with ice-cold Tris-HCl buffer (50 mM; pH 7.7; 6×0.5 ml). Filters were allowed to dry before adding scintillation fluid and counting in a Topcount scintillation counter. Percentage specific bound and competition binding curves were calculated using S-Plus software (Insightful).
as §2
The values in the Table are pIC50 values and were determined in accordance with the procedure given above for determining D2 affinity.

Where [4] appears, read: human cloned receptor in L929 cells, [125I]R91150, read-out: 5-HT2A pIC50 (converted).
[5] abbreviates: human cloned receptor in CHO cells, [3H]mesulergine, read-out: 5-HT2C pIC50 (converted).
[6] abbreviates: human D2L-transfected CHO cell membranes, [3H]Spiperone, read-out: D2L pIC50 (converted).
[7] abbreviates: Table 4, comparative data with prior art analogue.

T3 sequence (P14416 whole entry): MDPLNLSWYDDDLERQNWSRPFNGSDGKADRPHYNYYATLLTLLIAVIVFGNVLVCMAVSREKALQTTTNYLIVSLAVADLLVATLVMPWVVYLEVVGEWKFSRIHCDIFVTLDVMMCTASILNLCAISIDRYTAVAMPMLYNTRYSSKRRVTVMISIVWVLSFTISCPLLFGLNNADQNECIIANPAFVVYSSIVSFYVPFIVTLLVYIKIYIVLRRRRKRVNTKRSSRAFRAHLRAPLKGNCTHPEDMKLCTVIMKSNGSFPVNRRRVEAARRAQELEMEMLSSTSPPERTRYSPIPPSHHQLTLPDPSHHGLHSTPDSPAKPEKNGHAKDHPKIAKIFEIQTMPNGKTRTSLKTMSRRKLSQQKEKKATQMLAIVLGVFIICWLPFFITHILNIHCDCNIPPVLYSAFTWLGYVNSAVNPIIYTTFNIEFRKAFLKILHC
T1 sequence (P28223 whole entry): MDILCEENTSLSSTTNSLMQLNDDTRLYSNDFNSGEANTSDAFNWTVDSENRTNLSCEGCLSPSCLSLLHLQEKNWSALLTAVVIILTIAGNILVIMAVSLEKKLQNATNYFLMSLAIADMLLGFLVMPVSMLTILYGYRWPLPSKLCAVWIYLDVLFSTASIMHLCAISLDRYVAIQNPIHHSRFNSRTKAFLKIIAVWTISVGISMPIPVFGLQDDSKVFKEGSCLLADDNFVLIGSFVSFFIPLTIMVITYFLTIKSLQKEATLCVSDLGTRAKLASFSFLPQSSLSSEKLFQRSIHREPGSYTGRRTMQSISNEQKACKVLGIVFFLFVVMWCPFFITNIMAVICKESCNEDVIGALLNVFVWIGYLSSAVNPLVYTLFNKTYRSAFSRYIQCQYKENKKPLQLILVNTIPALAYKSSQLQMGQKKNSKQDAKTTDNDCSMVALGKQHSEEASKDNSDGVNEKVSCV

`CC1CCCN1C[C@H]1C[C@@H]2c3ccccc3Cc3ccc(F)cc3[C@H]2O1` (mixture of isomers) [Compound 16]: the IC50 in assay [1] (setting [4]) is 8.51 nM; in assay [2] (setting [5]) it was 4.37 nM; in assay [3] (setting [6]) it was 40.7 nM.

Turning to `Fc1ccc2c(c1)C1OC(CN3CCCC3)CC1c1ccccc1C2` (stereo not drawn) [Compound 4], the IC50 is 4.68 nM in assay [1] (setting [4]), 5.25 nM in assay [2] (setting [5]) and 24 nM in assay [3] (setting [6]).

As to `CC(=O)OCCN1CCN(C[C@H]2C[C@@H]3c4ccccc4Cc4ccc(F)cc4[C@H]3O2)CC1` [Compound 5], the IC50 in assay [1] (setting [4]) is 14.5 nM; in assay [2] (setting [5]) it was 19.1 nM; in assay [3] (setting [6]), 7.41 nM.

In the case of `Fc1ccc2c(c1)[C@H]1O[C@@H](CN3CCCCCC3)C[C@@H]1c1ccccc1C2` [Compound 10], the figures for the IC50 in assay [1] (setting [4]), in assay [2] (setting [5]) and in assay [3] (setting [6]) were 9.77 nM, 3.09 nM and 16.2 nM, respectively.

`CC1CCN(C[C@H]2C[C@@H]3c4ccccc4Cc4ccc(F)cc4[C@H]3O2)CC1` [Compound 12]: the IC50 is 3.89 nM in assay [1] (setting [4]), 1 nM in assay [2] (setting [5]) and 1.35 nM in assay [3] (setting [6]).

For the compound `Fc1ccc2c(c1)C1OC(CN3CCCCC3)CC1c1ccccc1C2` (stereo not drawn) [Compound 17], the IC50 was 1.91 nM in assay [1] (setting [4]), 1 nM in assay [2] (setting [5]) and 5.89 nM in assay [3] (setting [6]).

`CCOC(=O)N1CCN(C[C@H]2C[C@@H]3c4ccccc4Cc4ccc(F)cc4[C@H]3O2)CC1` [Compound 20]: the values for the IC50 in assay [1] (setting [4]), in assay [2] (setting [5]) and in assay [3] (setting [6]) were 4.27 nM, 9.55 nM and 33.1 nM, respectively.

In the case of `CC(C)C(=O)N1CCN(C[C@H]2C[C@@H]3c4ccccc4Cc4ccc(F)cc4[C@H]3O2)CC1` [Compound 22], the IC50 in assay [1] (setting [4]) was 3.8 nM; in assay [2] (setting [5]), 39.8 nM; in assay [3] (setting [6]), 34.7 nM.

As for `OC(CN1CCN(C[C@H]2C[C@@H]3c4ccccc4Cc4ccc(F)cc4[C@H]3O2)CC1)c1ccccc1` (stereo partly drawn) [Compound 27], the IC50 is 9.55 nM in assay [1] (setting [4]), 20.4 nM in assay [2] (setting [5]) and 4.07 nM in assay [3] (setting [6]).

In the case of `OC(Cc1ccccc1)CN1CCN(CC2CC3c4ccccc4Cc4ccc(F)cc4C3O2)CC1` (stereo not drawn) [Compound 28], the figures for the IC50 in assay [1] (setting [4]), in assay [2] (setting [5]) and in assay [3] (setting [6]) were 4.79 nM, 10.7 nM and 4.57 nM, respectively. In addition, the “h-D2L pIC50” value in assay [3] (setting [7]) is reported as 8.34.

For `CCCCC(O)CN1CCN(CC2CC3c4ccccc4Cc4ccc(F)cc4C3O2)CC1` (stereo not drawn) [Compound 29], the IC50 is 10 nM in assay [1] (setting [4]), 23.4 nM in assay [2] (setting [5]) and 6.03 nM in assay [3] (setting [6]). For the same compound, in assay [3] (setting [7]), the “h-D2L pIC50” value turned out to be 8.22.

Regarding `COC(=O)N1CCN(C[C@H]2C[C@@H]3c4ccccc4Cc4ccc(F)cc4[C@H]3O2)CC1` [Compound 31], the IC50 is 4.68 nM in assay [1] (setting [4]), 13.8 nM in assay [2] (setting [5]) and 14.1 nM in assay [3] (setting [6]).

With `CC(C)OC(=O)N1CCN(C[C@H]2C[C@@H]3c4ccccc4Cc4ccc(F)cc4[C@H]3O2)CC1` [Compound 32], the IC50 in assay [1] (setting [4]) is 5.13 nM; in assay [2] (setting [5]) it was 32.4 nM; in assay [3] (setting [6]) it was 22.9 nM.

With `CCCCOC(=O)N1CCN(C[C@H]2C[C@@H]3c4ccccc4Cc4ccc(F)cc4[C@H]3O2)CC1` [Compound 33], the IC50 is 11.7 nM in assay [1] (setting [4]), 38 nM in assay [2] (setting [5]) and 17 nM in assay [3] (setting [6]).

Regarding `CCOCCN1CCN(C[C@H]2C[C@@H]3c4ccccc4Cc4ccc(F)cc4[C@H]3O2)CC1` [Compound 34], the results for the IC50 in assay [1] (setting [4]), in assay [2] (setting [5]) and in assay [3] (setting [6]) were 0.851 nM, 5.01 nM and 2.51 nM, respectively.

Take `COCCN1CCN(C[C@H]2C[C@@H]3c4ccccc4Cc4ccc(F)cc4[C@H]3O2)CC1` [Compound 35]: the IC50 in assay [1] (setting [4]) is 1.51 nM; in assay [2] (setting [5]), 7.41 nM; in assay [3] (setting [6]) it was 3.09 nM.

For the compound `CC(C)(C)OCCN1CCN(C[C@H]2C[C@@H]3c4ccccc4Cc4ccc(F)cc4[C@H]3O2)CC1` [Compound 36], the IC50 in assay [1] (setting [4]) was 0.955 nM; in assay [2] (setting [5]), 5.5 nM; in assay [3] (setting [6]), 3.72 nM.

Turning to `OCCN1CCN(C[C@H]2C[C@@H]3c4ccccc4Sc4ccc(F)cc4[C@H]3O2)CC1` [Compound 39], the IC50 in assay [1] (setting [4]) is 0.692 nM; in assay [2] (setting [5]) it was 6.92 nM; in assay [3] (setting [6]), 2 nM.

On to `CC(C)CN1CCN(C[C@H]2C[C@@H]3c4ccccc4Cc4ccc(F)cc4[C@H]3O2)CC1` [Compound 40], for which the IC50 was 26.9 nM in assay [1] (setting [4]), 52.5 nM in assay [2] (setting [5]) and 12.3 nM in assay [3] (setting [6]).

Consider `Fc1ccc2c(c1)[C@H]1O[C@@H](CN3CCN(CC(c4ccccc4)c4ccccc4)CC3)C[C@@H]1c1ccccc1C2` [Compound 41], for which the values for the IC50 in assay [1] (setting [4]), in assay [2] (setting [5]) and in assay [3] (setting [6]) were 97.7 nM, 295 nM and 95.5 nM, respectively.

For `Fc1ccc2c(c1)[C@H]1O[C@@H](CN3CCN(Cc4ccc(Cl)cc4)CC3)C[C@@H]1c1ccccc1C2` [Compound 42], the figures for the IC50 in assay [1], in assay [2] and in assay [3] were 49 nM, 77.6 nM and 28.2 nM, respectively.

On to `Cc1ccccc1CN1CCN(C[C@H]2C[C@@H]3c4ccccc4Cc4ccc(F)cc4[C@H]3O2)CC1` [Compound 43], for which the IC50 was 40.7 nM in assay [1], 105 nM in assay [2] and 44.7 nM in assay [3].

Take `Fc1ccc2c(c1)[C@H]1O[C@@H](CN3CCN(Cc4ccccc4)CC3)C[C@@H]1c1ccccc1C2` [Compound 45]: the results for the IC50 in assay [1], in assay [2] and in assay [3] were 18.6 nM, 45.7 nM and 7.94 nM, respectively.

Turning to `OC(CCN1CCN(C[C@H]2C[C@@H]3c4ccccc4Cc4ccc(F)cc4[C@H]3O2)CC1)c1ccc(F)cc1` (stereo partly drawn) [Compound 46], the IC50 in assay [1] (setting [4]) was 5.13 nM; in assay [2] (setting [5]), 8.51 nM; in assay [3] (setting [6]), 1.12 nM.

With `Fc1ccc(CN2CCN(C[C@H]3C[C@@H]4c5ccccc5Cc5ccc(F)cc5[C@H]4O3)CC2)cc1` [Compound 47], the results for the IC50 in assay [1], in assay [2] and in assay [3] were 30.9 nM, 129 nM and 9.12 nM, respectively.

In the case of `Fc1ccc2c(c1)[C@H]1O[C@@H](CN3CCN(Cc4ccc(C(F)(F)F)cc4)CC3)C[C@@H]1c1ccccc1C2` [Compound 48], the IC50 is 234 nM in assay [1], 302 nM in assay [2] and 85.1 nM in assay [3].

Consider `OCCN1CCN(CC2CC3c4ccccc4Cc4ccc(F)cc4C3O2)CC1` (stereo not drawn) [Prior art compound 21from WO 99/19317, reference compound], for which the IC50 in assay [3] (Table 4, comparative data with prior art analogue, read-out: h-D2L pIC50 (converted)) was 110 nM.
